From patent publication US20260176302A1, “SARS-CoV-2 Binding Polypeptide” (Leyden Laboratories B.V., priority 2022, published 2026) come the findings set out here.

In the test the test system is SARS-CoV-2 B.1.351 variant. The format is in vivo, Mouse (Mus musculus).

On to IINPRGDGTRYAQKFQG [SEQ ID NO: 082], for which the “survival time vs control group (log-rank test)” value ([…], control median survival 7 days) is “significant improvement in survival time”. Besides, under “mouse, in vivo”, the “clinical signs (score 0-4)” value is “No clinical signs” and the “survival proportion at day 21” value worked out at 100%. Also, the “change in bodyweight (AUC) / weight loss vs control group” value (mouse, in vivo, listed as test polypeptide) is given as “significant reduction in weight loss”.
